# According to patent US20100267697A1, “ION CHANNEL MODULATORS” (Wyeth, priority 2006, published 2010):
# Molecular target: T1, human Cav2.2 (composed of the subunits α1, β3 and α2δ) (Homo sapiens, UniProt Q00975)
# T1 construct: expressed in transfected cells
# Assay: FLIPR assay (TSA201 cells stably transfected with human Cav2.2 and human Kir2.3, FLUO-4 Ca2+ signal, KCl depolarization)
# Type: cell-based
# Conditions: 70 mM KCl depolarization, average value
# Description: TSA201 cells stably transfected with human Cav2.2 (composed of the subunits α1, β3 and α2δ) and human Kir2.3 to enhance the FLIPR Ca^2+ signal were used. These cells were plated on 384-well collagen-coated plates (BD Bioscience, Franklin Lakes, N.J.) at a density of 2×10^4 cells/well one day prior to the FLIPR assay. […] Culture media is removed and replaced with 25 μl of the FLUO-4 dye solution and incubated for one hour at room temperature. The cell plate is then placed on the FLIPR where the dye is aspirated off and replaced with 25 μl of HBSS (Invitrogen, Carlsbad, Calif.). The HBSS is then aspirated and replaced with […] of compound which is diluted in HBSS with 1% DMSO. Compounds are incubated on the cells for 15 minutes. The cells are then depolarized with 25 μl of 140 mM KCl solution (also containing 2 mM CaCl2 and 10 mM HEPES). The final concentration of KCl on the cells is 70 mM.
# T1 sequence (Q00975 whole entry): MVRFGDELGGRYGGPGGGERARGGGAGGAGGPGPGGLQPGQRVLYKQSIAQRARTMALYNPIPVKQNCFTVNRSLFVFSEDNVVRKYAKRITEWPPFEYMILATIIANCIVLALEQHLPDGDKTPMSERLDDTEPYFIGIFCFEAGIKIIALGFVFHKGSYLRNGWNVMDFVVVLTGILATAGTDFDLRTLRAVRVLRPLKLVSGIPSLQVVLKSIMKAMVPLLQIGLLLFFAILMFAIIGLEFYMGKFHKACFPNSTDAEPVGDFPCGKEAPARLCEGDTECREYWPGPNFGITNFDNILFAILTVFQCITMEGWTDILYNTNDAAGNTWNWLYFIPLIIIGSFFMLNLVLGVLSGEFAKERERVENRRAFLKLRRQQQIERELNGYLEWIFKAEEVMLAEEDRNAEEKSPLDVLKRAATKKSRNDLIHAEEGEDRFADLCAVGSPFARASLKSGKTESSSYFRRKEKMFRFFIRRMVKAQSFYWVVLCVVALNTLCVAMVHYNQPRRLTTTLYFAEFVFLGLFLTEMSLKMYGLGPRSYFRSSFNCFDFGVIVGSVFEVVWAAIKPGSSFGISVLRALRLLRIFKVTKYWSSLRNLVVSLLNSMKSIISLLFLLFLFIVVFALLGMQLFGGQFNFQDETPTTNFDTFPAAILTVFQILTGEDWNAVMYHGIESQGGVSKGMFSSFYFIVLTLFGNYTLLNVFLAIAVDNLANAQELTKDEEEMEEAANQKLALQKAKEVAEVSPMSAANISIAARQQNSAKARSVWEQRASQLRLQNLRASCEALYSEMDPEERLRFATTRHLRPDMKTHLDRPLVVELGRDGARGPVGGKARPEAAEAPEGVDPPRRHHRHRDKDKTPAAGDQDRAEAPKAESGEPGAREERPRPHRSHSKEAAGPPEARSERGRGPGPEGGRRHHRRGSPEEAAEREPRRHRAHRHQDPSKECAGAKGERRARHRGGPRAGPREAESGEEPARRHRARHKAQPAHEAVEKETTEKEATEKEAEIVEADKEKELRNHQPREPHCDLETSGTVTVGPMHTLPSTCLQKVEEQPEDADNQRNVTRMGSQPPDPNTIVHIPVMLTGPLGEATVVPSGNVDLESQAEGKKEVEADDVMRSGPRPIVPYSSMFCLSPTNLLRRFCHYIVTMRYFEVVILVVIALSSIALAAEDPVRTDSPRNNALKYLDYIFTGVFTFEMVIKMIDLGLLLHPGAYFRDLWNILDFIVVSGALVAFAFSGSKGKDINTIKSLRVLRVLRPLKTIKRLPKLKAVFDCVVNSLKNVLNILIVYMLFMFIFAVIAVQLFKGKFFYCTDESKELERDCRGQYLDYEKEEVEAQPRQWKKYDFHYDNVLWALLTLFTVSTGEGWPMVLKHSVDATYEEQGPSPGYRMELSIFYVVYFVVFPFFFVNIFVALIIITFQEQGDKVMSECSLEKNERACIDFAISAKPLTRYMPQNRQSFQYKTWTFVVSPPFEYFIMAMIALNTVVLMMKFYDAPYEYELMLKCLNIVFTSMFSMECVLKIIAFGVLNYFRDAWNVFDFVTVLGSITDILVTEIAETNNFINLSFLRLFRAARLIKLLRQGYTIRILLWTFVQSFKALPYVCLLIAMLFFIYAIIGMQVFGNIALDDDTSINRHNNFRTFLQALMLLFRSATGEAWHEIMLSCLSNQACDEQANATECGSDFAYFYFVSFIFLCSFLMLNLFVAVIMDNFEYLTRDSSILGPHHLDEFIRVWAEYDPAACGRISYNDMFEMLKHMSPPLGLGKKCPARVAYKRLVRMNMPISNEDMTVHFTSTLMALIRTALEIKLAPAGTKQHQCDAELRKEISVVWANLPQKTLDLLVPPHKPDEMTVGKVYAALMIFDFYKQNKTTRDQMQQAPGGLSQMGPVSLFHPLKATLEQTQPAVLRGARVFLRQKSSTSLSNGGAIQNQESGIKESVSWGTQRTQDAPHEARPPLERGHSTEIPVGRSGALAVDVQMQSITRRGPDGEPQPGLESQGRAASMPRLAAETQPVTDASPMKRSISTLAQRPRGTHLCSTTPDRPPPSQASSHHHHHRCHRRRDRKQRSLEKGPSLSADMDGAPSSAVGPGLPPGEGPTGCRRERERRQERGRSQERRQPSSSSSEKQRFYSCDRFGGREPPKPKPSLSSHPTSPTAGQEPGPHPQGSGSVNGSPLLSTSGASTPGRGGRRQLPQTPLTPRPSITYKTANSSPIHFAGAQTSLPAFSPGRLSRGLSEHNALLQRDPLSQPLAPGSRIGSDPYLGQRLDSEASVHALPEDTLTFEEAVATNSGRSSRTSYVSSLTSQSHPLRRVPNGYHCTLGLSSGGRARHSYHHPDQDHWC
# T1 sequence (P54284 whole entry partner): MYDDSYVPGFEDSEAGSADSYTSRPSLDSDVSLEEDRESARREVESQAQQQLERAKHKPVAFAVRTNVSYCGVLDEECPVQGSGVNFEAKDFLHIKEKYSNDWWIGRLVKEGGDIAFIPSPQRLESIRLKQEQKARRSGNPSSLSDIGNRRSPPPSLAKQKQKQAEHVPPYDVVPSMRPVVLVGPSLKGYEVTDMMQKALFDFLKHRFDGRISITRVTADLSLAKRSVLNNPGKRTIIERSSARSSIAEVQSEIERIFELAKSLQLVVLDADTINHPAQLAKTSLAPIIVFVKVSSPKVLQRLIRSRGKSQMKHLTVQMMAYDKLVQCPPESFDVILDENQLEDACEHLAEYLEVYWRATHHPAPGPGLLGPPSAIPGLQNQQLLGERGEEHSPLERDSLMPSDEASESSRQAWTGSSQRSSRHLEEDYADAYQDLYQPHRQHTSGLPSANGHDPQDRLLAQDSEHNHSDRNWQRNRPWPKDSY
# T1 sequence (P54289 25-946 partner limits assumed): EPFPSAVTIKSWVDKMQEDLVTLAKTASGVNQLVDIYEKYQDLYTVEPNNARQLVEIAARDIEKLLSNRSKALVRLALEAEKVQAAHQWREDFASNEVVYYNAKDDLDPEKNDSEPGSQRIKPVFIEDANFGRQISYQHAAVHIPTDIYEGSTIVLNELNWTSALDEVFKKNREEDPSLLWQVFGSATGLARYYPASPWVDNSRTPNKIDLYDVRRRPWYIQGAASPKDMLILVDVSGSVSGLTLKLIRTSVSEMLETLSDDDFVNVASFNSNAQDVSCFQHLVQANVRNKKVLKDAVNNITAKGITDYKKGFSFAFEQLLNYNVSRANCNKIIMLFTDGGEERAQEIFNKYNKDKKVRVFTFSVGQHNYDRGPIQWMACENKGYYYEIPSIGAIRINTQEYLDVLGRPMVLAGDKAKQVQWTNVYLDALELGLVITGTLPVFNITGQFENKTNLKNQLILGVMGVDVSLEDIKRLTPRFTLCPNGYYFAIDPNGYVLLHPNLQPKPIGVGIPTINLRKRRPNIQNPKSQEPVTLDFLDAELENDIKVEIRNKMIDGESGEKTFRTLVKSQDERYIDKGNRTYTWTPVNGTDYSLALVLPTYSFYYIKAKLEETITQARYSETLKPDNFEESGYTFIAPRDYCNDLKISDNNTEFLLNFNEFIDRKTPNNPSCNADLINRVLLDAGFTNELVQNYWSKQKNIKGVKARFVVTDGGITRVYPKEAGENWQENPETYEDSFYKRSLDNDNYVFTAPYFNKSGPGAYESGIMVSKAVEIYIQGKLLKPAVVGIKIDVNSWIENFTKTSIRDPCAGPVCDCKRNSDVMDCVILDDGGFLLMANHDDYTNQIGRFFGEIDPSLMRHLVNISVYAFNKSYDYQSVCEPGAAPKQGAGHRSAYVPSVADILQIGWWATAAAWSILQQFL
# T1 sequence (P54289 947-1103 partner limits assumed): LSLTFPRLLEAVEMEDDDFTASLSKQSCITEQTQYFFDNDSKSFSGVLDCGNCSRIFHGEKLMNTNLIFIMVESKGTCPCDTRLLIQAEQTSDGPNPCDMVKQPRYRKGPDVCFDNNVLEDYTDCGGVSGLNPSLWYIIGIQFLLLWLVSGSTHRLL
row,Structure (SMILES),IC50 [µM]
1,"CCN(c1nc(CN(C(=O)C(C)(C)C)c2cccc(F)c2)cs1)C1CC1 [Compound 170, N-({2-[cyclopropyl(ethyl)amino]-1,3-thiazol-4-yl}methyl)-N-(3-fluorophenyl)-2,2-dimethylpropanamide]",3.9
2,"CCN(c1nc(CN(C(=O)C(C)(C)C)c2ccccc2C)cs1)C1CC1 [Compound 171, N-({2-[cyclopropyl(ethyl)amino]-1,3-thiazol-4-yl}methyl)-2,2-dimethyl-N-(2-methylphenyl)propanamide]",6.5
3,"CCN(c1nc(CN(C(=O)C(C)(C)C)c2cccc(C)c2)cs1)C1CC1 [Compound 172, N-({2-[cyclopropyl(ethyl)amino]-1,3-thiazol-4-yl}methyl)-2,2-dimethyl-N-(3-methylphenyl)propanamide]",4.3
4,"CCN(c1nc(CN(C(=O)C(C)(C)C)c2ccc(C)cc2)cs1)C1CC1 [Compound 173, N-({2-[cyclopropyl(ethyl)amino]-1,3-thiazol-4-yl}methyl)-2,2-dimethyl-N-(4-methylphenyl)propanamide]",3.8
5,"CCN(c1nc(CN(C(=O)C(C)(C)C)c2ccccc2OC)cs1)C1CC1 [Compound 174, N-({2-[cyclopropyl(ethyl)amino]-1,3-thiazol-4-yl}methyl)-N-(2-methoxyphenyl)-2,2-dimethylpropanamide]",3.8
6,"CCN(c1nc(CN(C(=O)C(C)(C)C)c2ccc(OC)cc2)cs1)C1CC1 [Compound 175, N-({2-[cyclopropyl(ethyl)amino]-1,3-thiazol-4-yl}methyl)-N-(4-methoxyphenyl)-2,2-dimethylpropanamide]",3.6
7,"CCN(c1nc(CN(C(=O)C(C)(C)C)c2cccc3c2CCCC3)cs1)C1CC1 [Compound 176, N-({2-[cyclopropyl(ethyl)amino]-1,3-thiazol-4-yl}methyl)-2,2-dimethyl-N-(5,6,7,8-tetrahydronaphthalen-1-yl)propanamide]",7.1
8,"CC(C)(C)C(=O)N(Cc1csc(N2CCN(Cc3ccccc3)CC2)n1)c1ccc(F)cc1 [Compound 177, N-{[2-(4-benzylpiperazin-1-yl)-1,3-thiazol-4-yl]methyl}-N-(4-fluorophenyl)-2,2-dimethylpropanamide]",9.3
9,"CN(C)CCN1CCN(c2nc(CN(C(=O)C(C)(C)C)c3ccc(F)cc3)cs2)CC1 [Compound 178, N-[(2-{4-[2-(dimethylamino)ethyl]piperazin-1-yl}-1,3-thiazol-4-yl)methyl]-N-(4-fluorophenyl)-2,2-dimethylpropanamide]",19.7
10,"CC(C)(C)C(=O)N(Cc1csc(N(c2ccccc2)c2ccccc2)n1)c1ccc(F)cc1 [Compound 179, N-{[2-(diphenylamino)-1,3-thiazol-4-yl]methyl}-N-(4-fluorophenyl)-2,2-dimethylpropanamide]",3.9
11,"CC(C)(C)C(=O)N(Cc1csc(-c2ccccc2)n1)c1ccc(F)cc1 [Compound 180, N-(4-fluorophenyl)-2,2-dimethyl-N-[(2-phenyl-1,3-thiazol-4-yl)methyl]propanamide]",7.9
12,"CC(C)(C)C(=O)N(Cc1csc(N2CCC3(CC2)OCCO3)n1)c1ccc(F)cc1 [Compound 181, N-{[2-(1,4-dioxa-8-azaspiro[4.5]dec-8-yl)-1,3-thiazol-4-yl]methyl}-N-(4-fluorophenyl)-2,2-dimethylpropanamide]",2.7
13,"CC(C)(C)C(=O)N(Cc1csc(N2CCC(O)CC2)n1)c1ccc(F)cc1 [Compound 182, N-(4-fluorophenyl)-N-{[2-(4-hydroxypiperidin-1-yl)-1,3-thiazol-4-yl]methyl}-2,2-dimethylpropanamide]",8.1
14,"CC(C)(C)C(=O)N(Cc1csc(N2CCCCCC2)n1)c1ccc(F)cc1 [Compound 183, N-[(2-azepan-1-yl-1,3-thiazol-4-yl)methyl]-N-(4-fluorophenyl)-2,2-dimethylpropanamide]",2.3
15,"CC(C)(C)C(=O)N(Cc1csc(N2CCCCCCC2)n1)c1ccc(F)cc1 [Compound 184, N-[(2-azocan-1-yl-1,3-thiazol-4-yl)methyl]-N-(4-fluorophenyl)-2,2-dimethylpropanamide]",1.6
16,"CC(C)(C)C(=O)N(Cc1csc(N2CCC(CO)CC2)n1)c1ccc(F)cc1 [Compound 185, N-(4-fluorophenyl)-N-({2-[4-(hydroxymethyl)piperidin-1-yl]-1,3-thiazol-4-yl}methyl)-2,2-dimethylpropanamide]",2.5
17,"CC(C)(C)C(=O)N(Cc1csc(N2CCCC(O)C2)n1)c1ccc(F)cc1 (stereo not drawn) [Compound 186, N-(4-fluroophenyl)-N-{[2-(3-hydroxypiperidin-1-yl)-1,3-thiazol-4-yl]methyl}-2,2-dimethylpropanamide]",5.6
18,"CC(C)(C)C(=O)N(Cc1csc(N2CCCC(CO)C2)n1)c1ccc(F)cc1 (stereo not drawn) [Compound 187, N-(4-fluorophenyl)-N-({2-[3-(hydroxymethyl)piperidin-1-yl]-1,3-thiazol-4-yl}methyl)-2,2-dimethylpropanamide]",3

row,Structure (SMILES),IC50 [µM]
1,"CC(C)(C)C(=O)N(Cc1csc(N2CCC(C#N)CC2)n1)c1ccc(F)cc1 [Compound 188, N-{[2-(4-cyanopiperidin-1-yl)-1,3-thiazol-4-yl]methyl}-N-(4-fluorophenyl)-2,2-dimethylpropanamide]",3.8
2,"CC(C)(C)C(=O)N(Cc1csc(N2CCSCC2)n1)c1ccc(F)cc1 [Compound 189, N-(4-fluorophenyl)-2,2-dimethyl-N-[(2-thiomorpholin-4-yl-1,3-thiazol-4-yl)methyl]propanamide]",1.6
3,"CC1CC(C)CN(c2nc(CN(C(=O)C(C)(C)C)c3ccc(F)cc3)cs2)C1 (stereo not drawn) [Compound 190, N-{[2-(3,5-dimethylpiperidin-1-yl)-1,3-thiazol-4-yl]methyl}-N-(4-fluorophenyl)-2,2-dimethylpropanamide]",2.2
4,"CC1CCN(c2nc(CN(C(=O)C(C)(C)C)c3ccc(F)cc3)cs2)CC1 [Compound 192, N-(4-fluorophenyl)-2,2-dimethyl-N-{[2-(4-methylpiperidin-1-yl)-1,3-thiazol-4-yl]methyl}propanamide]",1.9
5,"CC(C)(C)C(=O)N(Cc1csc(N2CCC(c3ccccc3)CC2)n1)c1ccc(F)cc1 [Compound 193, N-(4-fluorophenyl)-2,2-dimethyl-N-{[2-(4-phenylpiperidin-1-yl)-1,3-thiazol-4-yl]methyl}propanamide]",3.1
6,"CC(C)(C)C(=O)N(Cc1cnc(N2CCCCC2)s1)c1ccc(F)cc1 [Compound 194, N-(4-fluorophenyl)-2,2-dimethyl-N-[(2-piperidin-1-yl-1,3-thiazol-5-yl)methyl]propanamide]",3.2
7,"CC(C)(C)C(=O)N(Cc1ccc(Cl)nc1)c1ccc(F)cc1 [Compound 195, N-[(6-chloropyridin-3-yl)methyl]-N-(4-fluorophenyl)-2,2-dimethylpropanamide]",10.1
8,"CC(C)(C)C(=O)N(Cc1ccc(N2CCOCC2)nc1)c1ccc(F)cc1 [Compound 196, N-(4-fluorophenyl)-2,2-dimethyl-N-[(6-morpholin-4-ylpyridin-3-yl)methyl]propanamide]",13.8
9,"CCN(c1nc(CN(C(C)=O)C2CCCCC2)cs1)C1CC1 [Compound 197, N-cyclohexyl-N-({2-[cyclopropyl(ethyl)amino]-1,3-thiaozl-4-yl}methyl)acetamide]",5.7
10,"CCN(c1nc(CN(C(=O)C2CCCCC2)C2CCCCC2)cs1)C1CC1 [Compound 198, N-cyclohexyl-N-({2-[cyclopropyl(ethyl)amino]-1,3-thiazol-4-yl}methyl)cyclohexanecarboxamide]",3.3
11,"CC(=O)N(Cc1csc(N2CCOCC2)n1)C1CCCCC1 [Compound 199, N-cyclohexyl-N-[(2-morpholin-4-yl-1,3-thiazol-4-yl)methyl]acetamide]",27.2
12,"O=C(C1CCCCC1)N(Cc1csc(N2CCOCC2)n1)C1CCCCC1 [Compound 200, N-cyclohexyl-N-[(2-morpholin-4-yl-1,3-thiazol-4-yl)methyl]cyclohexanecarboxamide]",6.3
13,"O=C(Cc1ccccc1)N(Cc1csc(N2CCOCC2)n1)C1CCCCC1 [Compound 201, N-cyclohexyl-N-[(2-morpholin-4-yl-1,3-thiazol-4-yl)methyl]-2-phenylacetamide]",9.7
14,"CC(C)(C)OC(=O)c1cccc(-c2ccc(CN(C(=O)C(C)(C)C)c3ccc(F)cc3)cn2)c1 [Compound 202, tert-butyl 3-(5-{[(2,2-dimethylpropanoyl)(4-fluorophenyl)amino]methyl}pyridin-2-yl)benzoate]",11.1
15,"CC(C)(C)C(=O)N(Cc1ccc(-c2cccc(C(=O)O)c2)nc1)c1ccc(F)cc1 [Compound 203, 3-(5-{[(2,2-dimethylpropanoyl)(4-fluorophenyl)amino]methyl}pyridin-2-yl)benzoic acid]",39
16,"CC(C)(C)C(=O)N(Cc1csc(N2CCOCC2)n1)C1CCCCC1 [Compound 204, N-cyclohexyl-2,2-dimethyl-N-[(2-morpholin-4-yl-1,3-thiazol-4-yl)methyl]propanamide]",11.4
17,"CCN(c1nc(CN(C(=O)C(C)(C)C)C2CCCCC2)cs1)C1CC1 [Compound 205, N-cyclohexyl-N-({2-[cyclopropyl(ethyl)amino]-1,3-thiazol-4-yl}methyl)-2,2-dimethylpropanamide]",2.1
18,"CC(C)(C)C(=O)N(Cc1csc(C2CCCCC2)n1)c1ccc(F)cc1 [Compound 206, N-[(2-cyclohexyl-1,3-thiazol-4-yl)methyl]-N-(4-fluorophenyl)-2,2-dimethylpropanamide]",6.1
